Structures can show the parent of a compound that is named as a salt.
Tests used:
[1] = target: T1, human dopamine D2L receptors (long isoform) (Homo sapiens, UniProt P14416); assay: Dopamine D2L receptor binding, displacement of [125I]-iodospiperone; conditions: *Ki(D2L)/Ki(D3), HEK-293 membranes, 0.01 nM [125I]-iodospiperone
T1 construct: expressed in transfected cells
Description: (§1) The substance to be tested was dissolved either in methanol/Chremophor® (BASF-AG) or in dimethyl sulfoxide and then diluted with water to the desired concentration.
(§2) Triplicate mixtures were carried out.
The incubation buffer contained 50 mM Tris, 120 mM NaCl, 5 mM KCl, 2 mM CaCl2, 2 mM MgCl2 and 0.1% bovine serum albumin. The buffer was adjusted to pH 7.4 with HCl.
(§3) Measurement and Evaluation:
(§4) After incubation at 25° C. for 60 minutes, the mixtures were filtered under vacuum through Whatman GF/B glass fiber filters using a cell harvester. The filters were transferred by a filter transfer system into scintillation vials. After addition of 4 ml of Ultima Gold® (Packard), the samples were shaken for one hour and then the radioactivity was calculated in a beta counter (Packard, Tricarb 2000 or 2200CA). The cp values were converted into dpm by means of a standard quench series with the aid of the instrument's own program.
(§5) Evaluation of the inhibition plots took place by iterative nonlinear regression analysis using the Statistical Analysis System (SAS) similar to the “LIGAND” program described by Munson and Rodbard.

[2] = target: T2, human dopamine D3 receptors (Homo sapiens, UniProt P35462); assay: Dopamine D3 receptor binding, displacement of [125I]-iodosulpride; conditions: membranes from HEK-293 cells with stably expressed human D3 receptors, 0.1 nM [125I]-iodosulpride
T2 construct: expressed in transfected cells
T2 sequence (P35462 whole entry): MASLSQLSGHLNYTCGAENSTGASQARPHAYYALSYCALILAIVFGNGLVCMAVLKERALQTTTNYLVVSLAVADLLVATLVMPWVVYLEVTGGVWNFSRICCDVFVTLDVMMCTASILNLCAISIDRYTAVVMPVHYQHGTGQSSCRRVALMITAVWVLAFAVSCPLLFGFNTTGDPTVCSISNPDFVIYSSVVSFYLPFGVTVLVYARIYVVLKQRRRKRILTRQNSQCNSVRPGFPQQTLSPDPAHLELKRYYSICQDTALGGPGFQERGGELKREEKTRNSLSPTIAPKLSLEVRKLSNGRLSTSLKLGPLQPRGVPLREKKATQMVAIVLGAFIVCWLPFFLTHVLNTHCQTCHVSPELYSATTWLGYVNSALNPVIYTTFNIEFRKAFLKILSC
Description: as §1, §2
The incubation buffer contained 50 mM Tris, 120 mM NaCl, 5 mM KCl, 2 mM CaCl2, 2 mM MgCl2 and 0.1% bovine serum albumin, 10 μM quinolone, 0.1% ascorbic acid (prepared fresh each day). The buffer was adjusted to pH 7.4 with HCl.
as §3, §4, §5

T1 sequence (P14416 whole entry, canonical isoform): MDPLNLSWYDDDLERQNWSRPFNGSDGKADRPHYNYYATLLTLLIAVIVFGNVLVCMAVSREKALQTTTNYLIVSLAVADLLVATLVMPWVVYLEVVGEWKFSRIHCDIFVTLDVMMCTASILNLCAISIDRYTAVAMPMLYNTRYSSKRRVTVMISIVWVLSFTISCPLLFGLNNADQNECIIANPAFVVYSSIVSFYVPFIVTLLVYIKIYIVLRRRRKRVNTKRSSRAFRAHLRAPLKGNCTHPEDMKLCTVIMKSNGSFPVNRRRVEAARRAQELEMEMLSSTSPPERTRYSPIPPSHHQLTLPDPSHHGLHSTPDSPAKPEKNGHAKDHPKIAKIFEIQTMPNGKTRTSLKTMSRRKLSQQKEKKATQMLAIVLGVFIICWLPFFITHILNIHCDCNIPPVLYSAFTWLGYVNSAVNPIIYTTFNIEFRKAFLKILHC

Compound | Selectivity D3 vs. D2L* [1] | Ki [2] [nM]
CC(=O)O.CC(C)(C)c1nc(N2CCN(CCCCn3ccc(C4CC4)nc3=O)CC2)cc(C(F)(F)F)n1 [Example 94, 4-(2-tert-Butyl-6-trifluoromethylpyrimidin-4-yl)-1-[4-(4-cyclopropyl-2-oxo-2H-pyrimidin-1-yl)butyl]piperazin-1-ium acetate] | 36 | 4.28
Cc1cn(CCCCN2CCN(c3cc(C(C)(C)C)nc(C(C)(C)C)n3)CC2)c(=O)nc1O [Example 9, 1-{4-[4-(2,6-ditert-Butylpyrimidin-4-yl)piperazin-1-yl]butyl}-4-hydroxy-5-methylpyrimidin-2(1H)-one] | 53 | 0.74
C/C(=C\CN1CCN(c2cc(C(F)(F)F)nc(C(C)(C)C)n2)CC1)Cn1ccc(=O)[nH]c1=O [Example 46, 1-(2E)-{4-[4-(2-tert-Butyl-6-trifluoromethylpyrimidin-4-yl)piperazin-1-yl]-2-methylbut-2-enyl}-1H-pyrimidine-2,4-dione] | 43 | 5.41
Cc1cn(CCCCN2CCN(c3cc(C(F)(F)F)nc(C(C)(C)C)n3)CC2)c(=O)nc1NCc1ccccc1 [Example 11, 4-(Benzylamino)-1-(4-{4-[2-tert-butyl-6-(trifluoromethyl)pyrimidin-4-yl]piperazin-1-yl}butyl)-5-methylpyrimidin-2(1H)-one] | 65 | 3.14
CC(C)(C)c1nc(N2CCN(CCCCn3ccc(-c4ccccc4F)nc3=O)CC2)cc(C(F)(F)F)n1 [Example 67, 4-(2-tert-Butyl-6-trifluoromethylpyrimidin-4-yl)-1-{4-[4-(2-fluorophenyl)-2-oxo-2H-pyrimidin-1-yl]butyl}piperazin-1-ium fumarate] | 39 | 10.1
Cc1ccccc1N1CCN(CCCCn2cc(C)c(=O)[nH]c2=O)CC1 [Example 111, 5-Methyl-1-[4-(4-(o-tolyl)piperazin-1-yl)butyl]-1H-pyrimidine-2,4-dione] | 30 | 6.8
Cc1cn(CCCCN2CCN(c3cc(Cl)cc(Cl)c3)CC2)c(=O)[nH]c1=O [Example 119, 1-{4-[4-(3,5-Dichlorophenyl)piperazin-1-yl]butyl}-5-methyl-1H-pyrimidine-2,4-dione] | 65 | 0.46
Cc1cn(CCCCN2CCN(c3cc(C(F)(F)F)nc(C(C)(C)C)n3)CC2)c(=O)nc1O.Cl [Example 5, 1-[2-tert-Butyl-6-(trifluoromethyl)pyrimidin-4-yl]-4-[4-(4-hydroxy-5-methyl-2-oxopyrimidin-1 (2H)-yl)butyl]piperazin-4-ium chloride] | 246 | 1.3
CCCc1cc(N2CCN(CCCCn3ccc(C4CCC4)nc3=O)CC2)nc(C(C)(C)C)n1 [Example 74, 1-{4-[4-(2-tert-Butyl-6-propylpyrimidin-4-yl)piperazin-1-yl]butyl}-4-cyclobutyl-1H-pyrimidin-2-one] | 53 | 1.52
CCCc1cc(N2CCN(C(C)CCCn3cc(C)c(=O)[nH]c3=O)CC2)nc(C(C)(C)C)n1.Cl (stereo not drawn) [Example 38, 4-(2-tert-Butyl-6-propylpyrimidin-4-yl)-1-[1-methyl-4-(5-methyl-2,4-dioxo-3,4-dihydropyrimidin-1 (2H)-yl)butyl]piperazin-1-ium chloride] | 103 | 5.33
CC(=O)O.CCCc1cc(N2CCN(CCCCn3cc(Cl)c(=O)[nH]c3=O)CC2)nc(C(C)(C)C)n1 [Example 77, 4-(2-tert-Butyl-6-propylpyrimidin-4-yl)-1-[4-(5-chloro-2,4-dioxo-3,4-dihydro-2H-pyrimidin-1-yl)butyl]piperazin-1-ium acetate] | 150 | 0.74
CCCc1cc(N2CCN(CCCCn3ccc(C(F)(F)F)nc3=O)CC2)nc(C(C)(C)C)n1 [Example 41, 1-{4-[4-(2-tert-Butyl-6-propylpyrimidin-4-yl)piperazin-1-yl]butyl}-4-trifluoromethyl-1H-pyrimidin-2-one] | 62 | 5.78
Cc1cn(CCCCN2CCN(c3cc(C4CC4)nc(C(C)(C)C)n3)CC2)c(=O)nc1O [Example 17, 1-{4-[4-(2-tert-Butyl-6-cyclopropylpyrimidin-4-yl)piperazin-1-yl]butyl}-4-hydroxy-5-methylpyrimidin-2(1H)-one] | 134 | 0.71
CCCc1cc(N2CCN(C(C)CCCn3ccc(=O)[nH]c3=O)CC2)nc(C(C)(C)C)n1 (stereo not drawn) [Example 61, 4-(2-tert-Butyl-6-propylpyrimidin-4-yl)-1-[4-(2,4-dioxo-3,4-dihydro-2H-pyrimidin-1-yl)-1-methylbutyl]piperazin-1-ium fumarate] | 28 | 5.84
CC(C)(C)c1ccn(CCCCN2CCN(c3cc(C(F)(F)F)nc(C(C)(C)C)n3)CC2)c(=O)n1 [Example 14, 4-tert-Butyl-1-(4-{4-[2-tert-butyl-6-(trifluoromethyl)pyrimidin-4-yl]piperazin-1-yl}butyl)pyrimidin-2(1H)-one] | 82 | 2.62
CC(C)(C)c1ccn(CCCCN2CCN(c3cc(C4CC4)nc(C(C)(C)C)n3)CC2)c(=O)n1 [Example 19, 4-tert-Butyl-1-{4-[4-(2-tert-butyl-6-cyclopropylpyrimidin-4-yl)piperazin-1-yl]butyl}pyrimidin-2(1H)-one] | 96 | 1.44
CCc1ccn(CCCCN2CCN(c3cc(C(F)(F)F)nc(C(C)(C)C)n3)CC2)c(=O)n1 [Example 95, 4-(2-tert-Butyl-6-trifluoromethylpyrimidin-4-yl)-1-[4-(4-ethyl-2-oxo-2H-pyrimidin-1-yl)butyl]piperazin-1-ium fumarate] | 45 | 6.53
Cc1ccccc1-c1ccn(CCCCN2CCN(c3cc(C(F)(F)F)nc(C(C)(C)C)n3)CC2)c(=O)n1 [Example 60, 4-(2-tert-Butyl-6-trifluoromethylpyrimidin-4-yl)-1-[4-(2-oxo-4-(o-tolyl)-2H-pyrimidin-1-yl)butyl]piperazin-1-ium fumarate] | 91 | 4.33
CCCc1cc(N2CCN(CCC(C)Cn3cc(C)c(=O)[nH]c3=O)CC2)nc(C(C)(C)C)n1 (stereo not drawn) [Example 70, 1-{4-[4-(2-tert-Butyl-6-propylpyrimidin-4-yl)piperazin-1-yl]-2-methylbutyl}-5-methyl-1H-pyrimidine-2,4-dione] | 30 | 10
CCCc1cc(N2CCN(CCCCn3cc(F)c(=O)[nH]c3=O)CC2)nc(C(C)(C)C)n1 [Example 53, 1-{4-[4-(2-tert-Butyl-6-propylpyrimidin-4-yl)piperazin-1-yl]butyl}-5-fluoro-1H-pyrimidine-2,4-dione] | 56 | 2.32
CCCc1cc(N2CCN(CCCCn3ccc(-c4cccc(F)c4)nc3=O)CC2)nc(C(C)(C)C)n1 [Example 72, 4-(2-tert-Butyl-6-propylpyrimidin-4-yl)-1-{4-[4-(3-fluorophenyl)-2-oxo-2H-pyrimidin-1-yl]butyl}piperazin-1-ium fumarate] | 54 | 1.49
Cc1ccn(CCCCN2CCN(c3cc(C(C)C)nc(C(C)(C)C)n3)CC2)c(=O)n1.Cl [Example 39, 4-(2-tert-Butyl-6-isopropylpyrimidin-4-yl)-1-[4-(4-methyl-2-oxopyrimidin-1 (2H)-yl)butyl]piperazin-1-ium chloride] | 66 | 6.09
Cc1cn(CCCCN2CCN(c3cc(C(F)(F)F)nc(C(C)(C)C)n3)CC2)c(=O)nc1-c1ccccc1 [Example 26, 1-(4-{4-[2-tert-Butyl-6-(trifluoromethyl)pyrimidin-4-yl]piperazin-1-yl}butyl)-5-methyl-4-phenylpyrimidin-2(1H)-one] | 55 | 8.1
Cc1cn(CCCCN2CCN(c3cc(C(F)(F)F)nc(C(C)(C)C)n3)CC2)c(=O)n(C)c1=O [Example 25, 1-(4-{4-[2-tert-Butyl-6-(trifluoromethyl)pyrimidin-4-yl]piperazin-1-yl}butyl)-3,5-dimethylpyrimidine-2,4(1H,3H)-dione] | 34 | 
Cn1c(=O)ccn(CCCCN2CCN(c3cc(C(F)(F)F)nc(C(C)(C)C)n3)CC2)c1=O [Example 27, 1-(4-{4-[2-tert-Butyl-6-(trifluoromethyl)pyrimidin-4-yl]piperazin-1-yl}butyl)-3-methylpyrimidine-2,4(1H,3H)-dione] | 52 | 

— patent publication US8008488B2 (Abbott GmbH & Co. KG, priority 2003, dated 2011)
